# Reference: patent US9067928B2 (Genentech, Inc., priority 2008, dated 2015)
# Columns and labels:
# [1] = molecular target: T1, Bcl-xL (Homo sapiens, UniProt Q07817); assay: Alpha Screen Bcl-xL binding assay, competition with Bim26-mer; settings: values listed in the order of Table 1; read-out: Alphascreen results (IC50)
# T1 construct: made in house
# Protocol: The measurement of competition of compounds of the invention with Bim26-mer for a Bcl-2 family protein binding site using an Alpha Screen Bcl-xL Binding Assay:
# The BH3 proteins ALPHASCREEN™ assay was used to identify active small molecules Bcl-2 family protein screen. e.g., Bcl-xL, hmMcl-1 screen. To determine an accurate estimation of the IC50, the compounds were routinely tested at starting concentrations, 100 μM and/or 1 μM and serially titrated 3 fold over 11 dilutions.
# The beads come in close proximity when the protein and the peptides interact. Donor beads contain a photosensitiser that converts oxygen to an excited form of O2 at an excitation of 680 nm. Energy is transformed from the singlet oxygen and reacts with chemiluminescers on the acceptor bead, resulting in light emission at 520-620 nm. […] With this information, the IC50 of each compound was calculated
# GST-Bcl-xL, GST-hmMcl-1 and biotinylated GST proteins were prepared in-house and were stored as stock solutions at −80° C. The biotinylated-Bak, and biotinylated-Bim peptides were purchased from Auspep and were stored as 500 μM stock solutions in 100% DMSO at −80° C. The ALPHASCREEN™ GST (Glutathione-S-Transferase) Detection Kit was obtained from Perkin Elmer Lifesciences (Cat #6760603R). The Proxiplates, white 384 well flat-Bottom plates were purchased from Interpath Services, Melbourne (Cat #784075). The seals to cover the plates were purchased from Proscience. Melbourne (Cat#784075). DMSO was purchased from AnalaR. The 384 deep well plates and the Polypropylene 50 μL, V bottom polypropylene compound plates were purchased from Matrical.
# Compounds of the invention were prepared as 10 mM stocks with 100% DMSO on the day prior to performing the assay. […] To achieve a final compound concentration of 1 μM, in a separate matrical plate, 28 μL of 100% DMSO and 2 μL of 10 mM compound was added to a well, mixed well. 2 μL of this solution was taken and added to 38 μL of 100% DMSO. 20 μL of this solution was added to the test matrical plate. Several control compounds were included in the test plates. For the control wells 15 μL 100% DMSO only was added to the appropriate wells of each plate. The compound plates were then serially diluted 2 fold using the MiniTrak. Once titrations were complete, the compound plate was immediately covered with a foil seal to prevent evaporation.
# The assay and bead buffers were prepared fresh. Each titrated compound plate was assayed in duplicate. The following volumes were sufficient to run 12 Proxiplates (4 assay plates run in duplicate in each of Bclxl, hmMcl and counter assays)
# Protein and Peptide Preparation; and Assay Performance • 1. The assay and bead buffers were used to prepare the acceptor and donor solutions. ALPHASCREEN™ beads are light sensitive and therefore prepared in a darkened room. 2.5 μL of beads were added per 1 mL of buffer. • 2. The volume of protein or peptide to add was calculated using the following formula:
# [formula] • C1=Final Concentration of protein/peptide • C2=Stock Concentration of protein/peptide • V1=Total Volume of Acceptor/Donor Solution • V2=Volume of stock protein/Peptide to add to Acceptor/Donor solution • 3. The assay components were prepared as separate Acceptor and Donor Solutions. The Acceptor Solution contained Acceptor heads and target protein, while the Donor Solution contained Donor beads and biotinylated peptide.
# • 4. After the solutions were prepared, they were left to incubate for 30 minutes at room temperature to allow the beads to bind to the protein and the peptide. • 5. 50 μL of Bcl-xL solution, 50 μL of hmMcl-1 solution and 50 µL of biotinylated-GST were added into separate deep wells on an assay plate. A control […]. Assay/Bead buffer was added separate well plates (no protein). • 6.
# [2] = test system: Mcl-1-/- mouse embryonic fibroblasts (MEF); assay: Cell viability assay for Mcl-1-/- mouse embryonic fibroblasts (CellTiter-Glo); assay type: cell-based; settings: Fibroblast, 1% Fetal Bovine Serum, read-out: MEF Mcl-1-/- KO cell viability results (EC50)
# Source text: a. Cell Viability Assay for Mcl-1^−/− Mouse Embryonic Fibroblasts (MEF):
# Neutralization of both […] and Mcl-1 anti-apoptotic proteins in normal cells is required before a cell undergoes apoptosis via the downstream Bax/Bak pathway See, Chen. L. et al. Mol. Cell (2005) 17, 393-403; Willis, S. N. et al. Genes Dev. (2005) 19, 1294-1305. A compound that only targets Bcl-xL should not affect normal cells, but could kill certain cancer cells if they rely more on Bcl-xL and less on other anti-apoptotic proteins, e.g. Mcl-1, for survival. To mirror this, compounds of the invention were tested for its effect on survival of wild type (wt) mouse embryo fibroblasts (MEFs), Bax/Bak double knockout (BB DKO) MEFs, MEFs that expressed Noxa, and MEFs that expressed Bad. Noxa specifically neutralizes Mcl-1. […] MEFs that express Noxa mirror cancer cell types that are reliant on Bcl-xL for survival and should be much more sensitive to killing by a Bcl-xL targeting compound than MEFs where both Bcl-xL and Mcl-1 are protective.
# In this assay, Mcl-1^(−/−) cells were used to confirm that cell apoptosis in the presence of BH3 mimetic small molecules was due to predominantly Bcl-xL inactivation. This inactivation leaves Bax/Bak unconstrained and results in apoptosis. The […]-GLO Luminescent Cell Viability Assay is a homogeneous method of determining the number of viable cells in culture based on quantitation of the ATP present. The amount of ATP correlates with the presence of metabolically active cells such that following cell lysis the amount of ATP present is proportional to the amount of luminescence measured.
# Mcl-1^(−/−) mouse embryonic fibroblasts (MEFs) are an adherent cell line prepared in house. MEFs were grown in Iwaki 75 cm^2 tissue culture flasks (cat #3123-075) with FMA media which consists of: • 89% DME Kelso • 10% heat-inactivated foetal calf serum (FCS) (Hyclone cat #SH30396.03) • 1% 10 mM asparagine (Fluka cat #11149) • 275 μl of a 1:2000 dilution of 2-mercaptoethanol is added to the final 500 ml volume of FMA (Sigma cat #M7522; diluted in MT-PBS)
# FMA was stored at 4° C. and used at 37° C. MEFs were cultured in FMA media and harvested in MT-PBS and trypsin. For MEF cell viability assays, cells were seeded separately in plates with 10% FCS-FMA and 1% FCS-FMA. […]
# Automated Systems that can be used in this assay include: 1) Multidrop—The MULTIDROP 384 (ThermoLabsystems) dispenser was used to dispense cells aseptically into the assay plates: 2) MiniTrak—The […] system from Perkin Elmer was used for titration of the compound plates; 3) Zymark—The ZYMARK SCICLONE ALH3000 System with 100 nL pintool head was used for compound addition to the cells; 4) EnVision—The ENVISION plate reader was used to measure the viability via the detection of the luminescence. […]
# T1 sequence (Q07817 whole entry, species assumed): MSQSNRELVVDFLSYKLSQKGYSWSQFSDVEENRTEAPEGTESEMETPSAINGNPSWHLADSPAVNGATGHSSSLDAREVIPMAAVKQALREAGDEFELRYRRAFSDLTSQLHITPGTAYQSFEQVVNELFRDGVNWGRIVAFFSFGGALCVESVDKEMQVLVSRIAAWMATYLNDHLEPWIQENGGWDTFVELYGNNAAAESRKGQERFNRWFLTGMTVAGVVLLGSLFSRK
Structure (SMILES),IC50 [1],EC50 [2]
"O=C(O)c1nc(-c2ccc3c(c2)N(C(=O)Nc2nc4ccccc4s2)CCC3)ccc1OCCCc1ccccc1 [Example 90, 6-(1-(benzo[d]thiazol-2-ylcarbamoyl)-1,2,3,4-tetrahydroquinolin-7-yl)-3-(3-phenylpropoxy)picolinic acid]",10 nM,590 nM
"O=C(O)c1nc(-c2ccc3c(c2)N(C(=O)Nc2nc4ccccc4s2)CCC3)sc1/C=C/c1ccccc1 [Example 74, (E)-2-(1-(benzo[d]thiazol-2-ylcarbamoyl)-1,2,3,4-tetrahydroquinolin-7-yl)-5-styrythiazole-4-carboxylic acid]",3 nM,60 nM
